Consider seven compounds from US20220169989A1, “HUMAN CARDIOMYOCYTE SEPARATION REAGENT, CULTURE MEDIUM, SEPARATION METHOD, AND CULTURE METHOD” (FUWAI HOSPITAL CHINESE ACADEMY OF MEDICAL SCIENCES, priority 2019, published 2022).

Broadly, the solubility is the dissolved amount per volume that the medium holds.

In series [1] the test system is human cardiomyocytes. The series is described as follows: Human cardiomyocyte isolation test (calcium-free solution). Format: cell-based. How it is done:
The cardiomyocyte isolation process generally comprises tissue transport and sectioning, calcium-free perfusion, enzyme solution digestion and cell collection. In the process, the calcium-free Tyrode's solution (calcium-free solution) was the main reagent used in the isolation process, for calcium-free perfusion, enzyme solution digestion and cell collection. The test was conducted in this invention by reference to the cardiomyocyte isolation experimental protocol described in Liang Chen, Guang-ran Guo, Man Rao, Kai Chen, Jiang-ping Song and Sheng-shou Hu, “A Modified Method for Isolation of Human Cardiomyocytes to Model Cardiac Diseases.”, Journal of Translational Medicine (2018). Specific steps were as follows:
An excised left atrial appendage was immediately placed in an organ preservation solution (manufactured by the University of Wisconsin, USA) (about 4° C.), and quickly transferred it to a 60 mm cell culture dish in a super clean bench, an organ preservation solution (about 4° C.) was added, and the culture dish was placed on an ice box pre-cooled in a refrigerator at −20° C. Scissors were used to remove excess fat and trim it, the tissue was adhered to a specimen stage, and a microtome (Leica VT1200S, Germany) was used to slice the tissue (300 μm) which was then manually cut into pieces in the super clean bench. The cut atrial appendage pieces were divided into three groups, and the tissues were decalcified three times using the calcium-free solution of the present invention. 15-20 ml calcium-free solution was added to an Erlenmeyer flask for calcium-free perfusion for three times. The Erlenmeyer flask was shaken at room temperature, the calcium-free solution was replaced with fresh one after 2 min and 3 min respectively, and the third calcium-free perfusion time is 4 min. After finishing the calcium-free perfusion, the calcium-free solution was discarded and enzyme solution 1 (preheated to 37° C.) formulated from the corresponding calcium-free solution was added respectively. […] The enzyme solution was collected into a 15 ml centrifuge tube, fresh enzyme solution 1 was added to the Erlenmeyer flask, and digestion was still performed in the water bath kettle. The collected enzyme solution was placed in a pre-cooled 4° C. centrifuge (Eppendorf centrifuge 5804R, Germany) for centrifugation (100×g, 1 min), and the supernatant was discarded, followed by observing whether there were cardiomyocytes in the precipitate at the tube bottom, and determining the proportion of rod-shaped cells. The second digestion is the same as the first digestion. When the rate of rod-shaped cardiomyocytes contained in the precipitate is 70% or more, the enzyme solution 1 was replaced with enzyme solution 2 formulated from the calcium-free solution used in the enzyme solution 1, and digestion was continued. This time, cardiomyocytes in the turbid enzyme solution were collected by centrifugation (4° C., 100×g, 1 min) and then resuspending cells in a 3 ml transport solution.
In the process, the calcium-free solution was a calcium-free solution comprising 5 μM (−)-Blebbistatin, 10 μM (−)-Blebbistatin, and 20 mM BDM, respectively.

The subject of series [2] is human cardiomyocytes. The experiment in a line: In vitro culture of isolated human cardiomyocytes after recalcification. Format: cell-based. To be noted: 10 μM in isolation and in M199 + 10% FBS culture; cultured for 6 days; higher than 20 mM BDM group, p<0.05. As to the method: In addition, in order to observe whether the cell states were different when the human cardiomyocytes isolated using two calcium-free solutions (20 mM BDM and 10 μM (−)-Blebbistatin) were cultured in vitro, we performed recalcification on the isolated human cardiomyocytes. Specifically, it was difficult for human cardiomyocytes to survive in an environment without calcium ions, and the present invention adopted a 5-step gradient recalcification method to restore the calcium ion concentration of human cardiomyocytes. The concentration gradients of CaCl2 (with a stock concentration of 30 mM) added to the cell collection solution were 0.08 mM (5 min), 0.25 mM (5 min), 0.5 mM (5 min), 1 mM (5 min), and 1.8 mM (15 min) in order. The human cardiomyocytes isolated in the 20 mM BDM group were cultured using M199 medium with addition of 10% fetal bovine serum (FBS) (note: the concentration percentage of fetal bovine serum in the examples and corresponding figures was volume percentage), 100 U/ml penicillin, 100 μg/ml streptomycin and 20 mM BDM. […]

In series [3] the test system is human cardiomyocytes. The experiment in a line: Culture test: concentrations of (−)-Blebbistatin and para-aminoblebbistatin (Example 2.1). Format: cell-based. How it is done: 10% fetal bovine serum, 100 U/ml penicillin and 100 μg/ml streptomycin were added to M199 medium (purchased from Sigma), and the resulting medium was used as the basal medium. The experiment was divided into 9 groups, i.e. 0, 2.5, 5, 10, or 20 μM (−)-Blebbistatin, or 5 μM, 10 μM, 20 μM, or 50 μM para-aminoblebbistatin was added to the basal medium. The isolated human cardiomyocytes were divided into 9 groups, and the cells using 9 culture media were plated on a 48-well cell culture plate precoated with 200 μg laminin, and placed and cultured in a 37° C. cell incubator (with 5% CO2, and a relative saturated humidity of 95%) for 7 days, and the rates of rod-shaped cardiomyocytes were calculated.

The conditions of series [4]: water solubility, known property; cited from earlier work.
The test system of series [5] is human cardiomyocytes. The experiment in a line: Effect of myosin inhibitors BTS and MYK-461 on survival rate (Example 2.5). Format: cell-based. To be noted: MEM-HEPES-GlutaMAX + 10% FBS, p<0.05. How it is done:
In order to explore whether there are other myosin ATPase inhibitors besides BDM and (−)-Blebbistatin that can improve the rate of rod-shaped cardiomyocytes, the effects of (−)-Blebbistatin, BTS, and MYK-461 on the activity of cardiomyocytes were compared. For the isolated human cardiomyocytes, MEM-4-hydroxyethyl piperazine ethanesulfonic acid-GlutaMAX medium comprising 10 μM (−)-Blebbistatin, BTS (at concentrations of 5 μM, 10 μM, 20 μM, 30 μM, 40 μM, or 50 μM, respectively), or MYK-461 (at concentrations of 0.5 μM, 1 μM, 2 μM, 5 μM, 10 μM, or 20 μM, respectively) respectively was used, and 10% fetal bovine serum, 100 U/ml penicillin and 100 μg/ml streptomycin were added to the medium.

In series [6] the test system is human cardiomyocytes. The experiment in a line: Effect of coating composition on adherent cardiomyocytes (Example 2.2). Format: cell-based. The conditions noted are these: 72 hours; for number of rod-shaped cells: medium with 20 mM BDM. How it is done: 48-well culture plates were coated with the following reagents: laminin (Gibco, product number: 23017015; 50 μg/ml or 200 μg/ml, incubated overnight in a 37° C. incubator, and air dried), fibronectin (Sigma Aldrich, product number: F0895-2 MG; 5 μg/ml or 50 μg/ml, air dried), poly-L-lysine (Sigma Aldrich, product number: P04832-50 ML; 0.01%, incubated at room temperature for 5 min, air dried), and Matrigel (Corning, product number: 354234; incubated at 37° C. for 30 min). The culture medium used in this experiment was obtained by adding 20 mM BDM, 10% fetal bovine serum, 100 U/ml penicillin and 100 μg/ml streptomycin to M199 medium. The isolated cardiomyocytes were plated on coated 48-well culture plates, cultured for 72 hours (h), and photographed under a microscope. 4 fields of view were taken for each group for calculating the average number of rod-shaped cells, and the result was expressed as the mean±standard deviation.

≈ marks a conversion by molar mass, not a printed value.

As for `Cc1ccc2c(c1)C(=O)[C@]1(O)CCN(c3ccccc3)C1=N2` [(−)-Blebbistatin], the “rod-shaped cell morphology after isolation (photomicrographs)” value in the series with human cardiomyocytes [1] (5 μM and 10 μM) is recorded as “can maintain the long rod-shaped morphology of human cardiomyocytes”. Moreover, in the series with human cardiomyocytes [1] (5 μM and 10 μM in calcium-free solution, 20 mM BDM group normalized to 1.0, p<0.05), the “normalized rod-shaped cell rate” value is 1.2-1.5. In addition, the “lengths of human cardiomyocytes isolated” value in the series with human cardiomyocytes [1] (5 μM and 10 μM vs 20 mM BDM group, p<0.05) is recorded as “remarkably longer than those in the 20 mM BDM group”. Besides, the “rate of rod-shaped cardiomyocytes” value in the series with human cardiomyocytes [2] is given as at least 80%. The “state of cardiomyocytes (culture images)” value in the series on human cardiomyocytes [3] (5 μM and 10 μM vs 0 μM, after 1 day of culture) was “remarkably better than in the 0 μM group”. Further, the “long rod-shaped morphology of cardiomyocytes (culture images)” value with human cardiomyocytes [3] (10 μM compared with 5 μM, 1 day, more obvious after 7 days) is “better maintained the long rod-shaped morphology of cardiomyocytes”. Moreover, the “rate of rod-shaped cells” value in the series on human cardiomyocytes [3] (2.5, 5, 10, 20 μM vs 0 μM, M199 + 10% FBS, 7 days, p<0.001) was “remarkably higher than that in the group without (−)-Blebbistatin”. The solubility in series [4] is 10.9 ± 0.9 µM (≈ 3.19 µg/mL).
Regarding `CC(=O)C(C)=NO` [BDM, 2,3-butanedione monoxime], in the series on human cardiomyocytes [1] (20 mM), the “rod-shaped cell morphology after isolation (photomicrographs)” value is reported as “not well maintained”. For the same compound, the “normalized rod-shaped cell rate” value in the series on human cardiomyocytes [1] (20 mM in calcium-free solution, reference of the normalization) worked out at 1.0.
For the compound `Cc1ccc(S(=O)(=O)NCc2ccccc2)cc1` [BTS, N-benzyl-p-toluenesulfonamide], the “percentages of rod-shaped cells” value with human cardiomyocytes [5] (5-50 μM vs 10 μM (−)-Blebbistatin) is “significantly lower than the percentage in the (−)-Blebbistatin group”.
`CC(C)n1c(=O)cc(N[C@@H](C)c2ccccc2)[nH]c1=O` [MYK-461]: the “percentages of rod-shaped cells” value with human cardiomyocytes [5] (0.5-20 μM vs 10 μM (−)-Blebbistatin) is reported as “significantly lower than the percentage in the (−)-Blebbistatin group”.
`Cc1ccc2c(c1)C(=O)[C@]1(O)CCN(c3ccc(N)cc3)C1=N2` [para-aminoblebbistatin]: in the series on human cardiomyocytes [3] (10 μM para-aminoblebbistatin vs 10 μM (−)-Blebbistatin, 7 days), the “viability / survival rate of human cardiomyocytes” value was “no statistical difference”. For the same compound, in the series on human cardiomyocytes [3] (5-50 μM, 7 days), the “survival rate of cardiomyocytes” value is recorded as “can significantly improve the survival rate of cardiomyocytes”.
With fibronectin, in the series on human cardiomyocytes [6] (coating 5 μg/ml, 50 μg/ml), the “number of rod-shaped cells” value was “significantly lower than that in the Matrigel group, 50 μg/ml laminin group and 200 μg/ml laminin group”.
As for laminin, in the series with human cardiomyocytes [6] (coating 200 μg/ml), the “number of rod-shaped cells” value is on record as “highest number of rod-shaped cells”. Further, in the series on human cardiomyocytes [6] (coating, laminin 50-200 μg/ml), the “adherence and growth of cardiomyocytes” value is “can allow cardiomyocytes to adhere and grow”.
